The record followed here is ChEMBL document CHEMBL1138816, “Design and synthesis of novel N-acetylgalactosamine-terminated glycolipids for targeting of lipoproteins to the hepatic asialoglycoprotein receptor” (J Med Chem, 2004).

Data set [1] relates to Mus musculus. Description: Percentage liver uptake of [125I]LDL upon intravenous injection to C57BL/6J mice. The format is functional.
A short description of data set [2]: Uptake by the liver in mice at 60 min after injection. The class given is ADME, tissue-based. The settings on record: mouse, in vivo, 1 h.
Data set [3] in a line: Half-life in C57BL/6J mice upon intravenous administration of 3.33 mg/kg. The class given is ADME, organism-based. The arrangement: dose 3.33 mg/kg, route intravenous. The settings on record: mouse, in vivo.
Data set [4] is filed under the species Mus musculus. Description: Lipoprotein lowering effect in mice at 3-6 hrs was determined. The class given is functional.
The nature of data set [5]: Binding affinity for mouse asialoglycoprotein receptor using [125I]-glycolipid3.
Data set [6] relates to Mus musculus. Description: Percentage liver uptake of [3H]HDL upon intravenous injection to C57BL/6J mice.

Take `CCCCCCCC/C=C\CCCCCCCC(=O)N[C@H]1CC[C@@]2(C)C(CC[C@H]3[C@@H]4CC[C@H](C(C)CCC(=O)N[C@@H](Cc5ccc(O)cc5)C(=O)NCC(=O)NC(COCCC(=O)NCCOCCOCCOC5OC(CO)C(O)C(O)C5NC(C)=O)(COCCC(=O)NCCOCCOCCOC5OC(CO)C(O)C(O)C5NC(C)=O)COCCC(=O)NCCOCCOCCOC5OC(CO)C(O)C(O)C5NC(C)=O)[C@@]4(C)CC[C@@H]32)C1` (stereo partly specified): the Activity was determined as 70% in the data set with Mus musculus [1] and 78% with Mus musculus [6]. The Uptake in data set [2] was found to be 44%. The half-life – broadly, how long it takes for the measured level to halve – in data set [3] is roughly 30 min. Moreover, the Peak effect in the data set listed under Mus musculus [4] was 20%. In addition, the affinity in data set [5] corresponds to a Ki of 2 nM.
